Tests used:
B16.F10 cells = assay: CellTiter-Glo Luminescent Cell Viability Assay (cytotoxicity); format: cell-based, mouse; settings: 24, 48 and 72 hours
Protocol: B16.F10 cells, grown to 85-90% confluency in 150 cm^2 flasks (passage <30), were resuspended in media (MEM-alpha, 10% HI-FBS, 1× antibiotic-antimycotic) and added to 96-well opaque-clear bottom plates at a concentration of 1500 cells/well in 200 μL/well. The cells were incubated at 37° C. with 5% CO2 for 24 hours. The following day, serial dilutions of 2× concentrated particles and 2× concentrated free drug were made in 12-well reservoirs with media to specified concentrations. The media in the plates was replaced with 100 μL of fresh media and 100 μL of the corresponding serially diluted drug. Three sets of plates were prepared with duplicate treatments. Following 24, 48 and 72 hours of incubation at 37° C. with 5% CO2, the media in the plates was replaced with 100 μL of fresh media and 100 μL of CTG solution, and then incubated for 5 minutes on a plate shaker at room temperature set to 450 rpm and allowed to rest for 15 minutes. Viable cells were measured by luminescence using a microtiter plate reader. The data was plotted as % viability vs. concentration and standardized to untreated cells.

B16.F10 tumor = assay: In vivo efficacy in B16.F10 mouse model of melanoma (Example 39)
Protocol: The treatments were administered on days 5, 8, and 12 (biweekly×3 injections) post tumor implantation. Health status of the animals was monitored and tumor size was measured three times a week. […] Tumors from each animal were dissected and tumor size was measured. Tumor volume was calculated using the formula: (width×width×length)/2 mm^3.

| Compound | Growth inhibition of B16.F10 cells (B16.F10 cells) | also measured |
| --- | --- | --- |
| Doxorubicin 5050 PLGA Amide [Example 5] | inhibited the growth of B16.F10 cells in a dose and time dependent manner | – |
| CC(=O)O[C@H]1C(=O)[C@@]2(C)[C@H]([C@H](OC(=O)c3ccccc3)[C@]3(O)C[C@H](OC(=O)[C@H](O)[C@@H](NC(=O)c4ccccc4)c4ccccc4)C(C)=C1C3(C)C)[C@]1(OC(C)=O)CO[C@@H]1C[C@@H]2O [Free paclitaxel, paclitaxel] | – | Day-17 TGI (B16.F10 tumor; 6 mg/kg IV days 5, 8, 12): 57%; Day-17 TGI (B16.F10 tumor; 6 mg/kg IV days 5, 8, 12, listed as free paclitaxel): 57%; Day-17 TGI (B16.F10 tumor; 15 mg/kg IV days 5, 8, 12): 83%; Day-17 TGI (B16.F10 tumor; 15 mg/kg IV days 5, 8, 12, listed as free paclitaxel): 83% |
| Paclitaxel-5050 PLGA-O-Acetyl [Example 7] | inhibited the growth of B16.F10 cells in a dose and time dependent manner | – |
| Docetaxel-5050 PLGA-O-Acetyl [Example 8] | inhibited the growth of B16.F10 cells in a dose and time dependent manner | – |
| Bis(Docetaxel) Glutamate-5050 PLGA-O-Acetyl [Example 9] | inhibited the growth of B16.F10 cells in a dose and time dependent manner | – |

— US20110262490A1, “POLYMER-AGENT CONJUGATES, PARTICLES, COMPOSITIONS, AND RELATED METHODS OF USE” (priority 2009, published 2011)
